# Test results as given in ChEMBL document CHEMBL4118174, “The discovery of VU0486846: steep SAR from a series of M1 PAMs based on a novel benzomorpholine core” (Bioorg Med Chem Lett, 2018).
# Substitutions are numbered along the chain they refer to.
# Experiments:
# [1] = molecular target: T1, Muscarinic acetylcholine receptor M1 (Homo sapiens, UniProt P11229); assay: Positive allosteric modulation of human muscarinic acetylcholine M1 receptor expressed in CHO cells assessed as potentiation of acetylcholine-induced calcium mobilization; format: functional, cell-based
# T1 sequence (P11229 whole entry): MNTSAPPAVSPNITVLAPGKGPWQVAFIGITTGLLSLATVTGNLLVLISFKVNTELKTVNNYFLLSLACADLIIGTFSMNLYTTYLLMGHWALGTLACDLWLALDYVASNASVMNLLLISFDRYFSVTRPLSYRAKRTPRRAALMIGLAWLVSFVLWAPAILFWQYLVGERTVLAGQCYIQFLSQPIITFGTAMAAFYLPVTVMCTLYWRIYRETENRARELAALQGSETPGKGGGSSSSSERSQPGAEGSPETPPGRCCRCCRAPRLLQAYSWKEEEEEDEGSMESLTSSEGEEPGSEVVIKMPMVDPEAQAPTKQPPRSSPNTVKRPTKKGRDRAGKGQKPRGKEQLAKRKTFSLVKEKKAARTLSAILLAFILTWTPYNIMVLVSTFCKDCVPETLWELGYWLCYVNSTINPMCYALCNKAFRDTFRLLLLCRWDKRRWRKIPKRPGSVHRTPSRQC
# [2] = molecular target: T2, Muscarinic acetylcholine receptor M1 (Homo sapiens) (UniProt P11229); assay: Positive allosteric modulation of human muscarinic acetylcholine M1 receptor expressed in CHO cells assessed as potentiation of acetylcholine-induced calcium mobilization relative to acetylcholine; format: functional, cell-based
# T2 sequence (whole entry): T1 sequence (P11229 whole entry)
# [3] = molecular target: T1, Muscarinic acetylcholine receptor M1; assay: Positive allosteric modulation of human muscarinic acetylcholine M1 receptor expressed in CHO-NFAT cells assessed as potentiation of acetylcholine-induced calcium mobilization after 4 hrs by CCF4-AM dye-based assay; format: functional, cell-based
# [4] = Brain to plasma permeability coefficient, Kp of compound in Sprague-Dawley rat at 0.20 to 0.25 mg/kg administered as iv cassette dose measured at 0.25 hrs post dose; format: ADME, organism-based; conditions: for Kp at 0.25 h: Sprague-Dawley, brain and plasma; for Kp: brain, 0.25 h
# [5] = molecular target: T1, Muscarinic acetylcholine receptor M1; assay: Positive allosteric modulation of human muscarinic acetylcholine M1 receptor; format: functional
# [6] = molecular target: T3, Muscarinic acetylcholine receptor M1 (Rattus norvegicus, UniProt P08482); assay: Positive allosteric modulation of rat muscarinic acetylcholine M1 receptor; format: functional
# T3 sequence (P08482 whole entry): T1 sequence (P11229 whole entry) with A5V, T254S, P309S, R320K, A337G, I413V
# [7] = system: Rattus norvegicus; assay: Cognitive enhancing effect in po dosed rat by novel object recognition test; format: functional; conditions: read-out: MED
# [8] = Fraction unbound in rat plasma; format: ADME, cell-free
# [9] = Fraction unbound in human plasma; format: ADME, cell-free
# [10] = Fraction unbound in plasma (unknown origin); format: ADME, cell-free
# [11] = Brain to plasma permeability coefficient, Kp of compound in mouse; format: ADME
EC50 ([1]; read-out: EC50),%max [2],SMILES,further results
> 10000 nM,35%,O=C(NC1CCCCC1)C1CN(Cc2ccc(-n3cccn3)cc2)c2ccccc2O1 (configuration not stated),Kp at 0.25 h [4]: 1.1
2300 nM,62%,NC1CCCCC1NC(=O)C1CN(Cc2ccc(-n3cccn3)cc2)c2ccccc2O1 (configuration not stated),–
2200 nM,80%,O=C(N[C@H]1CCCC[C@@H]1O)C1CN(Cc2ccc(-n3cccn3)cc2)c2ccc(F)cc2O1 (some centres not stated),Kp [4]: 0.3 to 0.4; fraction unbound [8]: < 0.01; fraction unbound [9]: < 0.01
1200 nM,77%,O=C(N[C@H]1CCC[C@@H]1O)C1CN(Cc2ccc(-n3cccn3)cc2)c2ccccc2O1 (some centres not stated),Kp at 0.25 h [4]: 0.09
2800 nM,86%,O=C(N[C@H]1CCCC[C@@H]1O)C1CN(Cc2ccc(-n3cccn3)cc2)c2cc(Cl)ccc2O1 (mixture of isomers),Fu [10]: < 0.001
7300 nM,61%,CC1(C(=O)N[C@H]2CCCC[C@@H]2O)CN(Cc2ccc(-n3cccn3)cc2)c2ccccc2O1 (mixture of isomers),–
1600 nM,88%,O=C(N[C@H]1CCCC[C@@H]1O)C1CN(Cc2ccc(-n3cccn3)cc2F)c2ccccc2O1 (mixture of isomers),Fu [10]: < 0.001
3180 to 3200 nM,76%,O=C(N[C@H]1CCCC[C@@H]1O)C1CN(Cc2ccc(-n3cccn3)cc2)c2c(F)cccc2O1 (some centres not stated),EC50 ([1]; read-out: pEC50 (converted)): 3090 nM; Kp [4]: 0.3 to 0.4; fraction unbound [8]: < 0.01; fraction unbound [9]: < 0.01
1400 nM,75%,O=C(N[C@H]1CCCC[C@@H]1O)C1Cc2ccccc2N(Cc2ccc(-n3cccn3)cc2)C1 (mixture of isomers),–
2100 nM,81%,O=C(N[C@H]1CCCC[C@@H]1O)C1CN(Cc2ccc(-n3cccc3)cc2)c2ccccc2O1 (mixture of isomers),Fu [10]: < 0.001
320 nM,88%,O=C(N[C@H]1CCCC[C@@H]1O)C1CN(Cc2ccc(-n3cccn3)cc2)c2cc(F)ccc2O1 (some centres not stated),EC50 ([1]; read-out: pEC50 (converted)): 309 nM; Kp [4]: 0.3 to 0.4; fraction unbound [8]: < 0.01; fraction unbound [9]: < 0.01
140 nM,89%,O=C(N[C@H]1CCCC[C@@H]1O)C1CN(Cc2ccc(-n3cccn3)cc2)c2cccc(F)c2O1 (some centres not stated),Kp [4]: 0.3 to 0.4
780 nM,92%,O=C(N[C@H]1CCCC[C@@H]1O)C1CN(Cc2ccc(-n3cccn3)nc2)c2ccccc2O1 (mixture of isomers),EC50 ([1]; read-out: pEC50 (converted)): 708 nM; Fu [10]: < 0.001
920 nM,77%,O=C(N[C@H]1CCCC[C@@H]1O)C1CN(Cc2ccc(-n3cccn3)cc2)c2ccccc2O1 (mixture of isomers),Kp [4]: 0.17; Kp [11]: 0.7; Fu [8]: > 0.11; fraction unbound [9]: ≥ 0.11
190 nM,91%,O=C(N[C@H]1CCOC[C@@H]1O)C1CN(Cc2ccc(-n3cccn3)cc2)c2ccccc2O1 (some centres not stated),Kp at 0.25 h [4]: 0.08

# Further lines, the molecule ahead of its results:
SMILES,EC50 ([1]; read-out: EC50),%max [2],further results
Cc1ccc(CN2CC(C(=O)N[C@H]3CCCC[C@@H]3O)Oc3ccccc32)cn1 (some centres not stated),850 nM,85%,EC50 ([1]; read-out: pEC50 (converted)): 813 nM
Cc1ccc(Cc2cc3c(=O)n([C@H]4CCCC[C@@H]4O)cnc3c3ccccc23)cn1 [MK-7622],–,–,EC50 [3]: < 100 nM
Cn1nccc1-c1ccc(CN2CC(C(=O)N[C@H]3CCCC[C@@H]3O)Oc3ccccc32)cn1 (some centres not stated),1300 nM,94%,–
O=C(N[C@H]1CCCCC1=O)C1CN(Cc2ccc(-n3cccn3)cc2)c2ccccc2O1 (some centres not stated),2700 nM,78%,–
O=C(N[C@H]1CCCC[C@@H]1O)C1CN(Cc2ccc(C(F)(F)F)nc2)c2ccccc2O1 (some centres not stated),3700 nM,84%,–
O=C(N[C@H]1CCCC[C@@H]1O)C1CN(Cc2ccc(Br)nc2)c2ccccc2O1 (some centres not stated),1200 nM,91%,EC50 ([1]; read-out: pEC50 (converted)): 1070 nM
O=C(NC1CCOCC1)C1CN(Cc2ccc(-n3cccn3)cc2)c2ccccc2O1 (configuration not stated),6600 nM,69%,Kp at 0.25 h [4]: 1
CC(O)(CNC(=O)C1CN(Cc2ccc(-n3cccn3)cc2)c2ccccc2O1)C1CC1 (configuration not stated),1900 nM,80%,–
O=C(N[C@H]1CCCC[C@@H]1O)[C@H]1CN(Cc2ccc(-n3cccn3)cc2)c2ccccc2O1,–,–,EC50 [5]: 250 nM; EC50 [6]: 250 nM; minimal effective dose [7]: 3 mg/kg
C=Cc1ccc(CN2CC(C(=O)N[C@H]3CCCC[C@@H]3O)Oc3ccccc32)cn1 (some centres not stated),700 nM,89%,–
CN(C)c1ccc(CN2CC(C(=O)N[C@H]3CCCC[C@@H]3O)Oc3ccccc32)cn1 (some centres not stated),3800 nM,89%,–
O=C(N[C@H]1CCCC[C@@H]1O)C1CN(Cc2ccc(Cl)nc2)c2ccccc2O1 (some centres not stated),7600 nM,73%,EC50 ([1]; read-out: pEC50 (converted)): 7080 nM
CC(C)(O)CNC(=O)C1CN(Cc2ccc(-n3cccn3)cc2)c2ccccc2O1 (configuration not stated),6400 nM,60%,EC50 ([1]; read-out: pEC50 (converted)): 5890 nM
O=C(N[C@H]1CCCC[C@@H]1O)C1CN(Cc2ccc(C3CC3)nc2)c2ccccc2O1 (some centres not stated),2500 nM,90%,EC50 ([1]; read-out: pEC50 (converted)): 2240 nM
O=C(Nc1ncccc1O)C1CN(Cc2ccc(-n3cccn3)cc2)c2ccccc2O1 (configuration not stated),710 nM,75%,EC50 ([1]; read-out: pEC50 (converted)): 692 nM; Kp at 0.25 h [4]: 0.11
O=C(N[C@H]1CCCC[C@@H]1O)C1CN(Cc2ccc(-n3cccc3)nc2)c2ccccc2O1 (some centres not stated),500 nM,94%,–
O=C(NCC(O)C(F)(F)F)C1CN(Cc2ccc(-n3cccn3)cc2)c2ccccc2O1 (configuration not stated),2200 nM,78%,–
O=C(Nc1ncccc1F)C1CN(Cc2ccc(-n3cccn3)cc2)c2ccccc2O1 (configuration not stated),2300 nM,81%,–
COc1cccnc1NC(=O)C1CN(Cc2ccc(-n3cccn3)cc2)c2ccccc2O1 (configuration not stated),1700 nM,80%,EC50 ([1]; read-out: pEC50 (converted)): 1620 nM
Cc1ccn(-c2ccc(CN3CC(C(=O)N[C@H]4CCCC[C@@H]4O)Oc4ccccc43)cn2)n1 (some centres not stated),670 nM,91%,–
Cn1cc(-c2ccc(CN3CC(C(=O)N[C@H]4CCCC[C@@H]4O)Oc4ccccc43)cn2)cn1 (some centres not stated),220 nM,84%,–
O=C(N[C@H]1CCCC[C@@H]1O)C1CN(Cc2ccc(-n3ccnc3)nc2)c2ccccc2O1 (some centres not stated),290 nM,87%,–
